This is an account of results in patent US9107411B2, “Indolecarboxamides and benzimidazolecarboxamides as insecticides and acaricides” (BAYER INTELLECTUAL PROPERTY GMBH, priority 2011, dated 2015).

The structures appear in SMILES notation. Like-named read-outs stand apart in the source and are kept apart here.

The subject of series [1] is Ctenocephalides felis. The series can be described thus: Ctenocephalides felis oral (CTECFE). Type of series: in vivo. As to conditions: application rate 100 ppm in citrated cattle blood; after 2 days. Here is the method: Ctenocephalides felis Oral ([…]) Solvent: 1 part by weight of dimethyl sulphoxide For the purpose of preparing an appropriate active ingredient formulation, 10 mg of active ingredient are mixed with 0.5 ml of dimethyl sulphoxide. A portion of the concentrate is diluted with citrated cattle blood, and the desired concentration is prepared. About 20 unfed adult fleas (Ctenocephalides felis) are placed into a chamber which is closed at the top and bottom with gauze. A metal cylinder whose bottom end is closed with Parafilm is placed onto the chamber. The cylinder contains the blood/active ingredient formulation, which can be imbibed by the fleas through the Parafilm membrane. After 2 days, the kill in % is determined 100% means that all of the fleas have been killed; 0% means that none of the fleas have been killed.

Series [2] can be described thus: logP (HPLC-MS). Type of series: physicochemical.
Series [3] relates to Lucilia cuprina larvae. As to the kind of experiment: Lucilia cuprina test (LUCICU). As to conditions: application rate 100 ppm; treated horse meat; after 2 days. It is filed as in vivo. How it is done: Lucilia cuprina Test (LUCICU) Solvent: dimethyl sulphoxide To prepare an appropriate active ingredient formulation, 10 mg of active ingredient are mixed with 0.5 ml of dimethyl sulphoxide and the concentrate is diluted with water to the desired concentration. Vessels containing horse meat treated with the active ingredient formulation of the desired concentration are populated with about 20 Lucilia cuprina larvae. After 2 days, the kill in % is determined. 100% means that all of the larvae have been killed; 0% means that none of the larvae have been killed.

Series [4] deals with Tetranychus urticae. As to the kind of experiment: Tetranychus test, OP-resistant (TETRUR spray treatment). Type of series: in vivo. As to conditions: bean leaf discs, after 6 days. The method, boiled down: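 Bean leaf discs infested with all stages of OP-resistant T. urticae sprayed with compound formulated in acetone/DMF plus alkylaryl polyglycol ether emulsifier, diluted in water. Efficacy (% mites killed) scored after 6 days.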

Series [5] concerns Phaedon cochleariae. As to the kind of experiment: Phaedon test (PHAECO spray treatment). Type of series: in vivo. The note with it: Chinese cabbage leaf discs, after 7 days. The method, boiled down: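 Chinese cabbage leaf discs were sprayed with compound in acetone/DMF with emulsifier, diluted in water to the test concentration. After drying, discs were infested with mustard beetle larvae. Efficacy in % was scored after 7 days, where 100% means all larvae were killed and 0% means none.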

In series [6] the test system is adult Musca domestica. The series can be described thus: Musca domestica test (MUSCDO). As to conditions: application rate 100 ppm; treated sponge; after 2 days. Type of series: in vivo. How it is done: Musca domestica Test (MUSCDO) Solvent: dimethyl sulphoxide To prepare an appropriate active ingredient formulation, 10 mg of active ingredient are mixed with 0.5 ml of dimethyl sulphoxide and the concentrate is diluted with water to the desired concentration. Vessels containing a sponge treated with the active ingredient formulation of the desired concentration are populated with adult Musca domestica. After 2 days, the kill in % is determined 100% means that all of the flies have been killed; 0% means that none of the flies have been killed.

For series [7], the system named is Spodoptera frugiperda. As to the kind of experiment: Spodoptera frugiperda test (SPODFR spray treatment). Type of series: in vivo. As to conditions: maize leaf discs, after 7 days. The method, boiled down:
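Maize leaf discs sprayed with active ingredient formulated in acetone/dimethylformamide with emulsifier, diluted in emulsifier-containing water to the desired concentration. After drying, discs were populated with armyworm caterpillars. Efficacy (%) scored after 7 days: 100% all caterpillars killed, 0% none killed.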

The subject of series [8] is Boophilus microplus. As to the kind of experiment: Boophilus microplus test (BOOPMI injection). Type of series: in vivo. The note with it: application rate 20 μg/animal; injected into the abdomen; after 7 days. Here is the method: Boophilus microplus Test (BOOPMI Injection) Solvent: dimethyl sulphoxide To prepare an appropriate active ingredient formulation, 10 mg of active ingredient are mixed with 0.5 ml of solvent and the concentrate is diluted with solvent to the desired concentration. The active ingredient solution is injected into the abdomen (Boophilus microplus), and the animals are transferred into dishes and stored in a climate-controlled room. After 7 days, the efficacy in % is determined. The activity is assessed by laying of fertile eggs. 100% means that none of the ticks has laid any fertile eggs.

[9] abbreviates: HPLC, reversed-phase column (C18), acidic range pH 2.7, acetonitrile (0.1% formic acid)/water gradient, 43° C., calibration with unbranched alkan-2-ones.

`CCn1c(C(=O)NC(c2ccc(F)c(C(F)(F)F)c2)C(F)(F)F)cc2cc(C(=O)NC3CC3)c(Cl)cc21` (centres unmarked) [Compound 3]: the “efficacy (kill in %)” value in series [1], in series [3] and in series [6] was 100% each time. In series [2] (setting [9]), the log p is 3.93. For the same compound, the efficacy in % in series [4] (application rate 500 g/ha), in series [5] (application rate 100 g/ha) and in series [7] (application rate 100 g/ha) was 100% in each case. Also, in series [8], the “efficacy (laying of fertile eggs)” value is reported as 100%.
In the case of `CCn1c(C(=O)NC(c2cc(Cl)cc(Cl)c2)C(F)(F)F)cc2cc(C(=O)NC3CC3)c(Cl)cc21` (centres unmarked) [Compound 13], the “efficacy (kill in %)” value in series [1], in series [3] and in series [6] was 100% each time. Moreover, in series [2] (setting [9]), the log p was 4.27. The efficacy in % stood at 80% in series [4] (application rate 500 g/ha), 100% in series [5] (application rate 500 g/ha) and 100% in series [7] (application rate 500 g/ha). Moreover, the “efficacy (laying of fertile eggs)” value in series [8] came to 100%.
For `CCn1c(C(=O)NC(c2ccc(F)c(C(F)(F)F)c2)C(F)(F)F)cc2cc(C(=O)NC3(C#N)CC3)c(Cl)cc21` (centres unmarked) [Compound 16], the “efficacy (kill in %)” value in series [1], in series [3] and in series [6] was 100% throughout. In addition, in series [2] (setting [9]), the log p is given as 3.88. In addition, the efficacy in % in series [4] (application rate 100 g/ha), in series [5] (application rate 100 g/ha) and in series [7] (application rate 100 g/ha) was 100% in each case. For the same compound, the “efficacy (laying of fertile eggs)” value in series [8] turned out to be 100%.
Consider `CCn1c(C(=O)NC(c2ccc(F)c(Cl)c2)C(F)(F)F)cc2cc(C(=O)NC3(C#N)CC3)c(Cl)cc21` (centres unmarked) [Compound 20], for which the “efficacy (kill in %)” value in series [1], in series [3] and in series [6] was 100% throughout. In series [2] (setting [9]), this compound came in with a log p of 3.79. For the same compound, the efficacy in % in series [4] (application rate 100 g/ha) was determined as 80%; in series [5] (application rate 100 g/ha), 100%; in series [7] (application rate 100 g/ha), 100%. Also, the “efficacy (laying of fertile eggs)” value in series [8] is reported as 100%.
Take `CCn1c(C(=O)NC(c2cccc(C(F)(F)F)c2)C(F)(F)F)cc2cc(C(=O)NC3(C)CC3)c(Cl)cc21` (centres unmarked) [Compound 22]: the “efficacy (kill in %)” value in series [1], in series [3] and in series [6] was 100% each time. This compound also registered a log p in series [2] (setting [9]) of 4.16. Moreover, the values for the efficacy in % in series [4] (application rate 100 g/ha), in series [5] (application rate 100 g/ha) and in series [7] (application rate 100 g/ha) were 80%, 100% and 83%, respectively. In addition, in series [8], the “efficacy (laying of fertile eggs)” value stood at 100%.
`CCn1c(C(=O)NC(c2ccc(F)c(Br)c2)C(F)(F)F)cc2cc(C(=O)NC3(C#N)CC3)c(Cl)cc21` (centres unmarked) [Compound 42]: the “efficacy (kill in %)” value in series [1], in series [3] and in series [6] was 100% each time. The same compound came in with a log p in series [2] (setting [9]) of 3.76. Also, the efficacy in % in series [4] (application rate 100 g/ha), in series [5] (application rate 100 g/ha) and in series [7] (application rate 100 g/ha) was 100% each time. Moreover, in series [8], the “efficacy (laying of fertile eggs)” value is on record as 100%.
For the compound `Cn1c(C(=O)NC(c2ccc(F)c(C(F)(F)F)c2)C(F)(F)F)cc2cc(C(=O)NC3CC3)c(Cl)cc21` (centres unmarked) [Compound 49], the “efficacy (kill in %)” value in series [1] was determined as 98%; in series [3], 100%; in series [6] it was 100%. This compound also had a log p in series [2] (setting [9]) of 3.70. Moreover, the efficacy in % in series [4] (application rate 100 g/ha), in series [5] (application rate 100 g/ha) and in series [7] (application rate 100 g/ha) was 100% each time. Also, in series [8], the “efficacy (laying of fertile eggs)” value was 100%.
For the compound `Cn1c(C(=O)NC(c2ccc(F)c(C(F)(F)F)c2)C(F)(F)F)cc2cc(C(=O)NC3(C#N)CC3)c(Cl)cc21` (centres unmarked) [Compound 50], the “efficacy (kill in %)” value in series [1], in series [3] and in series [6] was 100% each time. The log p in series [2] (setting [9]) is reported as 3.52. Also, the efficacy in % in series [4] (application rate 100 g/ha), in series [5] (application rate 100 g/ha) and in series [7] (application rate 100 g/ha) was 100% each time. In addition, the “efficacy (laying of fertile eggs)” value in series [8] amounted to 100%.
Regarding `Cn1c(C(=O)NC(c2ccc(F)c(Br)c2)C(F)(F)F)cc2cc(C(=O)NC3(C#N)CC3)c(Cl)cc21` (centres unmarked) [Compound 52], the “efficacy (kill in %)” value in series [1], in series [3] and in series [6] was 100% in each case. Further, the log p in series [2] (setting [9]) stood at 3.44. The efficacy in % in series [4] (application rate 100 g/ha), in series [5] (application rate 100 g/ha) and in series [7] (application rate 100 g/ha) was 100% each time. Moreover, in series [8], the “efficacy (laying of fertile eggs)” value is given as 100%.
For `C#CCn1c(C(=O)NC(c2cccc(C(F)(F)F)c2)C(F)(F)F)cc2cc(C(=O)NC3(C#N)CC3)c(Cl)cc21` (centres unmarked) [Compound 57, 6-chloro-N^5-(1-cyanocyclopropyl)-1-(prop-2-yn-1-yl)-N^2-{2,2,2-trifluoro-1-[3-(trifluoromethyl)phenyl]ethyl}-1H-indole-2,5-dicarboxamide], the “efficacy (kill in %)” value in series [1], in series [3] and in series [6] was 100% in each case. The chromatographic logP in series [2] (HPLC, reversed-phase column (C18), acidic range pH 2.7, acetonitrile (0.1% formic acid)/water gradient, 43° C., calibration with unbranched alkan-2-ones, read-out: log p) worked out at 3.49; in series [2] (HPLC-MS), 3.49. The efficacy in % in series [4] (application rate 100 g/ha) and in series [7] (application rate 100 g/ha) was 100% throughout. For the same compound, in series [5] (Phaedon cochleariae, foliar, 168 h, application rate 100 g/ha, read-out: efficacy in %), the pest or weed control at 100 g/ha stood at 100%. Further, the “efficacy (laying of fertile eggs)” value in series [8] came to 100%.
For the compound `C#CCn1c(C(=O)NC(c2ccc(F)c(C(F)(F)F)c2)C(F)(F)F)cc2cc(C(=O)NC3(C#N)CC3)c(Cl)cc21` (centres unmarked) [Compound 61], the “efficacy (kill in %)” value in series [1], in series [3] and in series [6] was 100% in each case. In series [2] (setting [9]), this compound yielded a log p of 3.65. For the same compound, the efficacy in % in series [4] (application rate 100 g/ha), in series [5] (application rate 100 g/ha) and in series [7] (application rate 100 g/ha) was 100% in each case. The “efficacy (laying of fertile eggs)” value in series [8] worked out at 100%.
As for `C#CCn1c(C(=O)NC(c2ccc(F)c(Br)c2)C(F)(F)F)cc2cc(C(=O)NC3(C#N)CC3)c(Cl)cc21` (centres unmarked) [Compound 62], the “efficacy (kill in %)” value in series [1] was 100%; in series [3], 100%; in series [6], 80%. Also, the log p in series [2] (setting [9]) is recorded as 3.57. Moreover, the efficacy in % in series [4] (application rate 100 g/ha) is reported as 90%; in series [5] (application rate 100 g/ha), 100%; in series [7] (application rate 100 g/ha), 100%. Further, in series [8], the “efficacy (laying of fertile eggs)” value worked out at 100%.
For `C#CCn1c(C(=O)NC(c2ccc(F)c(Cl)c2)C(F)(F)F)cc2cc(C(=O)NC3CC3)c(Cl)cc21` (centres unmarked) [Compound 63], the “efficacy (kill in %)” value in series [1], in series [3] and in series [6] was 100% throughout. Also, the log p in series [2] (setting [9]) is reported as 3.57. Further, the efficacy in % in series [4] (application rate 100 g/ha), in series [5] (application rate 100 g/ha) and in series [7] (application rate 100 g/ha) was 100% each time. For the same compound, the “efficacy (laying of fertile eggs)” value in series [8] is reported as 100%.
Regarding `CCn1c(C(=O)NC(c2ccc(F)c(C(F)(F)F)c2)C(F)(F)F)cc2cc(C(=O)NC3CC3)c(C)cc21` (centres unmarked) [Compound 188], the “efficacy (kill in %)” value in series [1], in series [3] and in series [6] was 100% each time. The log p in series [2] (setting [9]) is 3.76. The efficacy in % in series [4] (application rate 100 g/ha), in series [5] (application rate 100 g/ha) and in series [7] (application rate 100 g/ha) was 100% throughout. Moreover, the “efficacy (laying of fertile eggs)” value in series [8] came to 100%.
